# Assay results taken from PubChem BioAssay AID256 (DTP/NCI, 2004).
# Where “and” joins values, the source holds several entries; their conditions need not be identical. Equal entries are not always repeated. Toxic doses and inconclusive results are not listed.
# System: CD2F1 mice, L1210 leukemia ip, survival T/C
# Assay: NCI In Vivo Anticancer Drug Screen. Data for tumor model L1210 Leukemia (intraperitoneal) in CD2F1 (CDF1) mice
# Details: higher = longer survival
# Protocol: The antitumor activity of compounds was measured in mice bearing transplantable tumors. Survival or tumor size were measured and the results are expressed as the measurement made in the treated group (T) divided by the measurement made in the vehicle treated control group (C). The tumor model used in this assay is L1210 Leukemia (intraperitoneal) in CD2F1 (CDF1) mice
# [1] = endpoint: mean survival time, dose: 6.25 mg/kg/injection, schedule: Q01DX009 (ip), vehicle: saline with Tween-80
# [2] = endpoint: mean survival time, dose: 12.5 mg/kg/injection, schedule: Q01DX009 (ip), vehicle: saline with Tween-80
# [3] = endpoint: mean survival time, dose: 25.0 mg/kg/injection, schedule: Q01DX009 (ip), vehicle: saline with Tween-80
# [4] = endpoint: mean survival time, dose: 100.0 mg/kg/injection, schedule: Q01DX009 (ip), vehicle: saline with Tween-80
# [5] = endpoint: mean survival time, dose: 200.0 mg/kg/injection, schedule: Q01DX009 (ip), vehicle: saline with Tween-80
# [6] = endpoint: mean survival time, dose: 400.0 mg/kg/injection, schedule: Q01DX009 (ip), vehicle: saline with Tween-80
# [7] = endpoint: mean survival time, dose: 100.0 mg/kg/injection, schedule: Q01DX001 (ip), vehicle: saline
# [8] = endpoint: mean survival time, dose: 200.0 mg/kg/injection, schedule: Q01DX001 (ip), vehicle: saline
# [9] = endpoint: mean survival time, dose: 400.0 mg/kg/injection, schedule: Q01DX001 (ip), vehicle: saline
# [10] = endpoint: mean survival time, dose: 100.0 mg/kg/injection, schedule: Q04DX003 (ip), vehicle: saline with Tween-80
# [11] = endpoint: mean survival time, dose: 200.0 mg/kg/injection, schedule: Q04DX003 (ip), vehicle: saline with Tween-80
# [12] = endpoint: mean survival time, dose: 50.0 mg/kg/injection, schedule: Q04DX002 (ip), vehicle: saline with Tween-80
# [13] = endpoint: mean survival time, dose: 100.0 mg/kg/injection, schedule: Q04DX002 (ip), vehicle: saline with Tween-80
# [14] = endpoint: mean survival time, dose: 200.0 mg/kg/injection, schedule: Q04DX002 (ip), vehicle: saline with Tween-80
# [15] = endpoint: mean survival time, dose: 400.0 mg/kg/injection, schedule: Q04DX002 (ip), vehicle: saline with Tween-80
# [16] = endpoint: mean survival time, dose: 50.0 mg/kg/injection, schedule: Q01DX009 (ip), vehicle: saline with Tween-80
smiles,measurement,setting,value
Cc1cc(NCCCCCCCNc2cc(C)nc3cc(N)ccc23)c2ccc(N)cc2n1,T/C,"endpoint: mean survival time, dose: 0.78 mg/kg/injection, schedule: Q01DX009 (ip), vehicle: saline with Tween-80",123 % of control and 110 % of control
same,T/C,"endpoint: mean survival time, dose: 1.56 mg/kg/injection, schedule: Q01DX009 (ip), vehicle: saline with Tween-80",121 % of control and 123 % of control
same,T/C,[1],153 % of control
same,T/C,[2],157 % of control and 183 % of control
same,T/C,[3],104 % of control
same,T/C,"endpoint: median survival time, dose: 0.78 mg/kg/injection, schedule: Q01DX009 (ip), vehicle: distilled water + Tween-80",119 % of control
same,T/C,"endpoint: median survival time, dose: 0.78 mg/kg/injection, schedule: Q01DX009 (ip), vehicle: other",113 % of control
same,T/C,"endpoint: median survival time, dose: 1.56 mg/kg/injection, schedule: Q01DX009 (ip), vehicle: distilled water + Tween-80",121 % of control
same,T/C,"endpoint: median survival time, dose: 1.56 mg/kg/injection, schedule: Q01DX009 (ip), vehicle: other",120 % of control
same,T/C,"endpoint: median survival time, dose: 6.25 mg/kg/injection, schedule: Q01DX009 (ip), vehicle: other",150 % of control
same,T/C,"endpoint: median survival time, dose: 6.25 mg/kg/injection, schedule: Q01DX009 (ip), vehicle: water",157 % of control
same,T/C,"endpoint: median survival time, dose: 12.5 mg/kg/injection, schedule: Q01DX009 (ip), vehicle: distilled water + Tween-80",167 % of control
same,T/C,"endpoint: median survival time, dose: 12.5 mg/kg/injection, schedule: Q01DX009 (ip), vehicle: other",170 % of control
same,T/C,"endpoint: median survival time, dose: 12.5 mg/kg/injection, schedule: Q01DX009 (ip), vehicle: water",180 % of control
C=C(Br)CNS(=O)(=O)c1ccc(OC)cc1,T/C,[4],93 % of control
same,T/C,[5],97 % of control
same,T/C,[6],96 % of control
COC1OC(CO)C(NC(N)=O)C1O (stereo unspecified),T/C,[7],101 % of control
same,T/C,[8],100 % of control
same,T/C,[9],95 % of control
CC1CCc2ccccc2N1CCN (stereo unspecified),T/C,"endpoint: mean survival time, dose: 100.0 mg/kg/injection, schedule: Q04DX003 (ip), vehicle: Klucel (hydroxypropylcellulose) (HPC)",95 % of control
CC(C)n1cnc2c(=S)nc[nH]c21,T/C,"endpoint: mean survival time, dose: 41.0 mg/kg/injection, schedule: Q01DX Z (ip), vehicle: saline",121 % of control
same,T/C,"endpoint: mean survival time, dose: 94.0 mg/kg/injection, schedule: Q01DX Z (ip), vehicle: saline",171 % of control
ClP1(c2ccccc2)=NP(Cl)(c2ccccc2)=NP(Cl)(c2ccccc2)=NP(Cl)(c2ccccc2)=N1 (stereo unspecified),T/C,[10],96 % of control
same,T/C,[11],94 % of control
Nc1nc2c(ncn2-c2ccc(Cl)c(Cl)c2)c(=O)[nH]1,T/C,[12],98 % of control
same,T/C,[13],93 % of control and 97 % of control
same,T/C,[14],97 % of control
same,T/C,[15],93 % of control
O=C(Nc1ccc(Cl)c(Cl)c1)Nc1c(Oc2ccc(Cl)c(Cl)c2)ccc(Cl)c1S(=O)(=O)O,T/C,"endpoint: mean survival time, dose: 3.12 mg/kg/injection, schedule: Q01DX009 (ip), vehicle: saline with Tween-80",109 % of control
same,T/C,[1],109 % of control
same,T/C,[2],110 % of control
same,T/C,[3],113 % of control
same,T/C,[16],104 % of control
same,T/C,[4],113 % of control
same,T/C,[10],108 % of control
same,T/C,[11],101 % of control
c1ccc(CCSCCSCCc2ccccn2)nc1,T/C,[12],101 % of control
same,T/C,[13],113 % of control
same,T/C,[14],101 % of control
same,T/C,[15],93 % of control
O=C(NC(=S)Nc1cccc(F)c1)c1cccc(Br)c1,T/C,"endpoint: mean survival time, dose: 50.0 mg/kg/injection, schedule: Q01DX009 (ip), vehicle: other",98 % of control and 104 % of control
same,T/C,"endpoint: mean survival time, dose: 50.0 mg/kg/injection, schedule: Q04DX003 (ip), vehicle: other",111 % of control
same,T/C,"endpoint: mean survival time, dose: 100.0 mg/kg/injection, schedule: Q01DX001 (ip), vehicle: other",102 % of control
same,T/C,"endpoint: mean survival time, dose: 100.0 mg/kg/injection, schedule: Q04DX002 (ip), vehicle: other",95 % of control
same,T/C,"endpoint: mean survival time, dose: 100.0 mg/kg/injection, schedule: Q04DX003 (ip), vehicle: other",104 % of control
same,T/C,"endpoint: mean survival time, dose: 200.0 mg/kg/injection, schedule: Q01DX001 (ip), vehicle: other",98 % of control
same,T/C,"endpoint: mean survival time, dose: 200.0 mg/kg/injection, schedule: Q04DX002 (ip), vehicle: other",91 % of control
same,T/C,"endpoint: mean survival time, dose: 200.0 mg/kg/injection, schedule: Q04DX003 (ip), vehicle: other",102 % of control
same,T/C,"endpoint: mean survival time, dose: 400.0 mg/kg/injection, schedule: Q04DX002 (ip), vehicle: other",101 % of control
same,T/C,"endpoint: mean survival time, dose: 400.0 mg/kg/injection, schedule: Q04DX003 (ip), vehicle: other",106 % of control
C1=CC2C3C=CC(CC3)C2CC1 (stereo unspecified),T/C,[4],103 % of control
same,T/C,[5],98 % of control
Cc1cn(C2OC(CO)C(O)C2Cl)c(=O)nc1N (stereo unspecified),T/C,"endpoint: median survival time, dose: 12.5 mg/kg/injection, schedule: Q01DX005 (ip), vehicle: saline",101 % of control
same,T/C,"endpoint: median survival time, dose: 25.0 mg/kg/injection, schedule: Q01DX005 (ip), vehicle: saline",104 % of control
same,T/C,"endpoint: median survival time, dose: 50.0 mg/kg/injection, schedule: Q01DX005 (ip), vehicle: saline",104 % of control
same,T/C,"endpoint: median survival time, dose: 100.0 mg/kg/injection, schedule: Q01DX005 (ip), vehicle: saline",101 % of control
same,T/C,"endpoint: median survival time, dose: 200.0 mg/kg/injection, schedule: Q01DX005 (ip), vehicle: saline",96 % of control
Fc1ccc2c(c1)CC(CBr)O2 (stereo unspecified),T/C,[4],100 % of control
same,T/C,[5],105 % of control
same,T/C,[6],96 % of control
C[Si](C)(C)NP(=O)(Oc1ccc([N+](=O)[O-])cc1)Oc1ccc([N+](=O)[O-])cc1,T/C,"endpoint: mean survival time, dose: 15.6 mg/kg/injection, schedule: Q01DX001 (ip), vehicle: other",110 % of control
same,T/C,"endpoint: mean survival time, dose: 31.3 mg/kg/injection, schedule: Q01DX001 (ip), vehicle: other",97 % of control
same,T/C,"endpoint: mean survival time, dose: 62.5 mg/kg/injection, schedule: Q01DX001 (ip), vehicle: other",102 % of control and 108 % of control
same,T/C,"endpoint: mean survival time, dose: 125.0 mg/kg/injection, schedule: Q01DX001 (ip), vehicle: other",87 % of control and 94 % of control
Cc1cc(=O)[nH]c2[nH]c(=O)ccc12,T/C,[7],100 % of control
same,T/C,[8],96 % of control
same,T/C,[9],96 % of control
CS(C)=O.[Cl-].[Cl-].[NH-]CC(O)C[N-]CC(O)CN.[Pt+4] (stereo unspecified),T/C,"endpoint: median survival time, dose: 10.0 mg/kg/injection, schedule: Q04DX003 (ip), vehicle: saline",97 % of control
same,T/C,"endpoint: median survival time, dose: 20.0 mg/kg/injection, schedule: Q04DX003 (ip), vehicle: saline",111 % of control
same,T/C,"endpoint: median survival time, dose: 40.0 mg/kg/injection, schedule: Q04DX003 (ip), vehicle: saline",108 % of control
same,T/C,"endpoint: median survival time, dose: 50.0 mg/kg/injection, schedule: Q04DX003 (ip), vehicle: saline",94 % of control
same,T/C,"endpoint: median survival time, dose: 80.0 mg/kg/injection, schedule: Q04DX003 (ip), vehicle: saline",98 % of control
COC(CN(CC(OC)OC)c1ncnc2nc[nH]c12)OC,T/C,"endpoint: mean survival time, dose: 25.0 mg/kg/injection, schedule: Q01DX005 (ip), vehicle: other",93 % of control
same,T/C,"endpoint: mean survival time, dose: 50.0 mg/kg/injection, schedule: Q01DX005 (ip), vehicle: other",91 % of control
same,T/C,"endpoint: mean survival time, dose: 100.0 mg/kg/injection, schedule: Q01DX005 (ip), vehicle: other",98 % of control
same,T/C,"endpoint: mean survival time, dose: 200.0 mg/kg/injection, schedule: Q01DX005 (ip), vehicle: other",98 % of control
same,T/C,"endpoint: mean survival time, dose: 400.0 mg/kg/injection, schedule: Q01DX005 (ip), vehicle: other",96 % of control
CCCCCCCCNC(=O)CC,T/C,[7],103 % of control
same,T/C,"endpoint: mean survival time, dose: 100.0 mg/kg/injection, schedule: Q01DX009 (ip), vehicle: saline",94 % of control
same,T/C,"endpoint: mean survival time, dose: 100.0 mg/kg/injection, schedule: Q04DX003 (ip), vehicle: saline",97 % of control
same,T/C,[8],100 % of control
same,T/C,"endpoint: mean survival time, dose: 200.0 mg/kg/injection, schedule: Q01DX009 (ip), vehicle: saline",94 % of control
same,T/C,"endpoint: mean survival time, dose: 200.0 mg/kg/injection, schedule: Q04DX003 (ip), vehicle: saline",101 % of control
same,T/C,[9],100 % of control
same,T/C,"endpoint: mean survival time, dose: 400.0 mg/kg/injection, schedule: Q01DX009 (ip), vehicle: saline",92 % of control
same,T/C,"endpoint: mean survival time, dose: 400.0 mg/kg/injection, schedule: Q04DX003 (ip), vehicle: saline",98 % of control
CC(C)(C)C(=O)CC(O)(C(F)(F)Cl)C(F)(F)Cl,T/C,[16],111 % of control
same,T/C,[4],116 % of control and 108 % of control
same,T/C,[5],92 % of control and 95 % of control
same,T/C,[6],113 % of control
